Here are results for 23 compounds from patent publication US12304912B2, “Fused bicyclic RAF inhibitors and methods for use thereof” (Jazz Pharmaceuticals Ireland Limited, priority 2020, dated 2025).

Series [1] can be described thus: Plasma protein binding assay, human plasma (hPPB). Type of series: in vitro ADME. The following applies: 5 μM. The essentials:
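Equilibrium dialysis of 5 μM compound in previously frozen human or mouse plasma against phosphate buffer, 4 h at 37 °C. Both chambers quantified by LC-MS/MS; % free = (1−((PC−PF)/PC))×100.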

For series [2], the system named is RAF dimers in HCT-116 cells. The series can be described thus: HCT-116 AlphaLISA SureFire pERK1/2 cellular assay (dimer). In kind it is cell-based. Particulars: Homo sapiens, HCT-116, 1 hr. In short, it runs like this:
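HCT-116 (KRAS G13D) cells, 30,000/well, pretreated 1 h with 1 μM Encorafenib to induce RAF dimers, washed, then dosed 1 h at 37° C with compound (10-point, top 10 μM, 1/2 log steps) in growth medium. pERK1/2 (T202/Y204) measured by AlphaLISA SureFire; absolute IC50 versus DMSO control.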
On the technique in general: Bead proximity is the source of the signal in Alpha formats.

Series [3] can be described thus: Microsomal stability assay, mouse liver microsomes (MLM). Type of series: in vitro ADME. The following applies: 0.5 mg/mL protein, 1 μM substrate. The essentials:
(§1)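 Half-life and CLint come from the ln(% remaining)–time slope, with remaining compound quantified by LC-MS/MS after ice-cold solvent quench of timed samples. Incubations used 1 μM test compound and 0.5 mg·mL^−1 human or mouse liver microsomal protein at 37° C.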

Series [4] is described as follows: Microsomal stability assay, human liver microsomes (HLM). The following applies: 0.5 mg/mL protein, 1 μM substrate. Type of series: in vitro ADME. The essentials: as §1
Background: Liver microsomes are vesicles of endoplasmic reticulum, rich in cytochrome P450 enzymes.

Setting [5] is: equilibrium dialysis 4 hours 37° C.
[6] abbreviates: equilibrium dialysis 4 hours at 37° C.
Setting [7] is: HCT116 cells pre-dosed with 1 μM Encorafenib, read-out: pERK HCT116 dimer (1 hr) pIC50 (converted).
[8] abbreviates: HCT116 cells, dimer, read-out: pERK HCT116 dimer (1 hr) plC50 (converted).

Like-named read-outs stand apart in the source and are kept apart here.

By microsomal CLint is commonly meant the rate of metabolic loss divided by the concentration. For the compound `O=C1CCc2c(Oc3ccc4c(c3)CC(c3nc(-c5ccnc(C(F)(F)F)c5)c[nH]3)CO4)ccnc2N1` (stereo not shown) [Compound 8, 5-[3-[4-[2-(trifluoromethyl)-4-pyridyl]-1H-imidazol-2-yl]chroman-6-yl]oxy-3,4-dihydro-1H-1,8-naphthyridin-2-one], the “hPPB (% free)” value in series [1] (setting [5]) and in series [1] (setting [6]) was 1.0 % free throughout. Also, the IC50 in series [2] (setting [7]) and in series [2] (setting [8]) was 269 nM each time. Moreover, the intrinsic clearance (microsomal CLint) at 1 μM was determined as 13.9 µL/min/mg in series [3] and 36 µL/min/mg in series [4].
As for `O=C1CCc2c(Oc3ccc4c(c3)CC(c3nc(-c5ccnc(C(F)F)c5)c[nH]3)CO4)ccnc2N1` (stereo not shown) [Compound 101, 5-[3-[4-[2-(difluoromethyl)-4-pyridyl]-1H-imidazol-2-yl]chroman-6-yl]oxy-3,4-dihydro-1H-1,8-naphthyridin-2-one], the “hPPB (% free)” value in series [1] (setting [6]) came out at 1.6 % free. The IC50 in series [2] (setting [8]) was 63.1 nM. Moreover, the intrinsic clearance (microsomal CLint) at 1 μM in series [3] (37° C.) was determined as 15.2 µL/min/mg; in series [4] (37° C.) it was 29.6 µL/min/mg.
On to `O=C1CCc2c(Oc3ccc4c(c3)CC(c3nc5cc(C(F)(F)F)ccc5[nH]3)CO4)ccnc2N1` (stereo not shown) [Compound 22, 5-[3-[6-(trifluoromethyl)-1H-benzimidazol-2-yl]chroman-6-yl]oxy-3,4-dihydro-1H-1,8-naphthyridin-2-one], for which the “hPPB (% free)” value in series [1] (setting [5]) is less than 0.1 % free. Besides, the IC50 in series [2] (setting [7]) is 155 nM. Besides, the microsomal CLint at 1 μM in series [3] is 25.1 µL/min/mg; in series [4] it was 35.9 µL/min/mg.
As for `O=C1CCc2c(Oc3ccc4c(c3)CC(c3nc(-c5ccc(C(F)(F)F)nc5)c[nH]3)CO4)ccnc2N1` (stereo not shown) [Compound 127, 5-[3-[4-[6-(trifluoromethyl)-3-pyridyl]-1H-imidazol-2-yl]chroman-6-yl]oxy-3,4-dihydro-1H-1,8-naphthyridin-2-one], the “hPPB (% free)” value in series [1] (setting [6]) came out at 0.6 % free. For the same compound, the IC50 in series [2] (setting [8]) was 158 nM. For the same compound, the microsomal CLint at 1 μM in series [3] (37° C.) turned out to be 13.4 µL/min/mg; in series [4] (37° C.) it was 38.7 µL/min/mg.
Take `O=C(Nc1cc(Oc2ccc3c(c2)CC(c2nc(-c4ccc(F)cc4)c[nH]2)CO3)ccn1)C1CC1` (stereo not shown) [Compound 155, N-[4-[3-[4-(4-fluorophenyl)-1H-imidazol-2-yl]chroman-6-yl]oxy-2-pyridyl]cyclopropanecarboxamide]: the “hPPB (% free)” value in series [1] (setting [6]) was 0.1 % free. In addition, the IC50 in series [2] (setting [8]) was 72.4 nM. Moreover, the “MLM (CLint)” value in series [3] (37° C.) was determined as 277 µL/min/mg. Also, in series [4] (37° C.), the intrinsic metabolic clearance (microsomal CLint) at 1 μM came to 28.9 µL/min/mg.
On to `O=C1CCc2c(Oc3ccc4c(c3)CN(C(=O)Nc3ccc(C(F)(F)F)cc3)CC4)ccnc2N1` [Compound 47], for which the “hPPB (% free)” value in series [1] (setting [5]) is recorded as 0.7 % free. Also, in series [2] (setting [7]), the IC50 is 64.6 nM. The microsomal CLint at 1 μM in series [3] came to 32.5 µL/min/mg; in series [4] it was 24.5 µL/min/mg.
Take `O=C(Cn1ccnc1)Nc1cc(Oc2ccc3c(c2)CC(c2nc(-c4ccccc4)c[nH]2)CO3)ccn1` (stereo not shown) [Compound 144]: in series [1] (setting [6]), the “hPPB (% free)” value came to 0.7 % free. The IC50 in series [2] (setting [8]) was 60.3 nM. Moreover, the intrinsic metabolic clearance (microsomal CLint) at 1 μM in series [3] (37° C.) amounted to 29.3 µL/min/mg; in series [4] (37° C.), 27.1 µL/min/mg.
Taken in the same sequence, the figures for `O=C(CN1CC[C@@H](O)C1)Nc1cc(Oc2ccc3c(c2)CC(c2nc(-c4ccccc4)c[nH]2)CO3)ccn1` (stereo partly shown) [Compound 145] were 0.4 % free, 178 nM, 147 µL/min/mg and 57.2 µL/min/mg.
For `O=C(Cn1cncn1)Nc1cc(Oc2ccc3c(c2)CC(c2nc(-c4ccccc4)c[nH]2)CO3)ccn1` (stereo not shown) [Compound 154], in that order: 0.75 % free, 38 nM, 95.2 µL/min/mg and 22.8 µL/min/mg.
As for `O=C(CN1CCOCC1)Nc1cc(Oc2ccc3c(c2)CC(c2nc(-c4ccccc4)c[nH]2)CO3)ccn1` (stereo not shown) [Compound 149], the “hPPB (% free)” value in series [1] (setting [6]) was found to be 0.25 % free. In addition, the IC50 in series [2] (setting [8]) is 363 nM. Moreover, the microsomal CLint at 1 μM stood at 231 µL/min/mg in series [3] (37° C.) and 63.7 µL/min/mg in series [4] (37° C.).
For `c1ccc(-c2c[nH]c(C3COc4ccc(Oc5ccnc(Nc6ccccn6)c5)cc4C3)n2)cc1` (stereo not shown) [Compound 140, 4-[3-(4-phenyl-1H-imidazol-2-yl)chroman-6-yl]oxy-N-(2-pyridyl)pyridin-2-amine], the “hPPB (% free)” value in series [1] (setting [6]) is on record as less than 0.1 % free. In addition, the IC50 in series [2] (setting [8]) is 2040 nM. For the same compound, the intrinsic clearance (microsomal CLint) at 1 μM in series [3] (37° C.) was determined as 81.1 µL/min/mg; in series [4] (37° C.), 48.7 µL/min/mg.
As for `N#Cc1ccc2[nH]c(C3COc4ccc(Oc5ccnc6c5CCC(=O)N6)cc4C3)nc2c1` (stereo not shown) [Compound 24], in series [1] (setting [5]), the “hPPB (% free)” value amounted to 1.8 % free. In addition, the IC50 in series [2] (setting [7]) was 155 nM. Besides, the microsomal CLint at 1 μM in series [3] was 41.6 µL/min/mg; in series [4], 12.7 µL/min/mg.
Turning to `O=C(Nc1cc(Oc2ccc3c(c2)CC(c2nc(-c4ccccc4)c[nH]2)CO3)ncn1)C1CC1` (stereo not shown) [Compound 151, N-[6-[3-(4-phenyl-1H-imidazol-2-yl)chroman-6-yl]oxypyrimidin-4-yl]cyclopropanecarboxamide], in series [1] (setting [6]), the “hPPB (% free)” value stood at 0.21 % free. For the same compound, the IC50 in series [2] (setting [8]) is 204 nM. Moreover, the microsomal CLint at 1 μM turned out to be 161 µL/min/mg in series [3] (37° C.) and 18.3 µL/min/mg in series [4] (37° C.).
For `O=C1CCc2c(Oc3ccc4c(c3)CC(c3nc(-c5cccc(C(F)(F)F)c5)c[nH]3)CO4)ccnc2N1` (stereo not shown) [Compound 12, 5-[3-[4-[3-(trifluoromethyl)phenyl]-1H-imidazol-2-yl]chroman-6-yl]oxy-3,4-dihydro-1H-1,8-naphthyridin-2-one], in series [1] (setting [5]), the “hPPB (% free)” value is less than 0.1 % free. Also, the IC50 in series [2] (setting [7]) was 229 nM. Further, the intrinsic metabolic clearance (microsomal CLint) at 1 μM was 15.7 µL/min/mg in series [3] and 88.6 µL/min/mg in series [4].
As to `CC(=O)Nc1cc(Oc2ccc3c(c2)CC(c2nc(-c4ccccc4)c[nH]2)CO3)ccn1` (stereo not shown) [Compound 156, N-[4-[3-(4-phenyl-1H-imidazol-2-yl)chroman-6-yl]oxy-2-pyridyl]acetamide], in series [1] (setting [6]), the “hPPB (% free)” value turned out to be 0.5 % free. For the same compound, the IC50 in series [2] (setting [8]) was 52.5 nM. In addition, the intrinsic clearance (microsomal CLint) at 1 μM was 152 µL/min/mg in series [3] (37° C.) and 30.3 µL/min/mg in series [4] (37° C.).
For `O=C1CCc2c(Oc3ccc4c(c3)CC(c3nc(-c5cncc(C(F)F)c5)c[nH]3)CO4)ccnc2N1` (stereo not shown) [Compound 105, 5-[3-[4-[5-(difluoromethyl)-3-pyridyl]-1H-imidazol-2-yl]chroman-6-yl]oxy-3,4-dihydro-1H-1,8-naphthyridin-2-one], in that order: 1.0 % free, 64.6 nM, 2.1 µL/min/mg and 24.8 µL/min/mg.
For the compound `CCc1cc(-c2c[nH]c(C3COc4ccc(Oc5ccnc6c5CCC(=O)N6)cc4C3)n2)n(C)n1` (stereo not shown) [Compound 111], the “hPPB (% free)” value in series [1] (setting [6]) stood at 1.91 % free. The IC50 in series [2] (setting [8]) was 107 nM. The results for the microsomal CLint at 1 μM in series [3] (37° C.) and in series [4] (37° C.) were 26.9 µL/min/mg and 48.1 µL/min/mg, respectively.
In the case of `Cc1ccc(-c2c[nH]c(C3COc4ccc(Oc5ccnc6c5CCC(=O)N6)cc4C3)n2)s1` (stereo not shown) [Compound 110], in series [1] (setting [6]), the “hPPB (% free)” value amounted to 0.2 % free. The IC50 in series [2] (setting [8]) is 50.1 nM. The figures for the intrinsic clearance (microsomal CLint) at 1 μM in series [3] (37° C.) and in series [4] (37° C.) were 55.5 µL/min/mg and 48.3 µL/min/mg, respectively.
For the compound `O=C1CCc2c(Oc3ccc4c(c3)CC(c3nc5cc(C(F)(F)F)ncc5[nH]3)CO4)ccnc2N1` (racemic) [Compound 32], the “hPPB (% free)” value in series [1] (setting [5]) is listed as 1.3 % free. Moreover, the IC50 in series [2] (setting [7]) was 398 nM. Moreover, the figures for the microsomal CLint at 1 μM in series [3] and in series [4] were 8.3 µL/min/mg and 11.3 µL/min/mg, respectively.
Turning to `O=C1CCc2c(Oc3ccc4c(c3)CN(c3nc5cc(C(F)(F)F)ccc5[nH]3)CC4)ccnc2N1` [Compound 160], the “hPPB (% free)” value in series [1] (setting [6]) is listed as 0.3 % free. The IC50 in series [2] (setting [8]) is 347 nM. For the same compound, the microsomal CLint at 1 μM was 4.5 µL/min/mg in series [3] (37° C.) and 2.7 µL/min/mg in series [4] (37° C.).
As to `O=C1CCc2c(Oc3ccc4c(c3)CC(c3nc5ccncc5[nH]3)CO4)ccnc2N1` (stereo not shown) [Compound 134, 5-[3-(3H-imidazo[4,5-c]pyridin-2-yl)chroman-6-yl]oxy-3,4-dihydro-1H-1,8-naphthyridin-2-one], in series [1] (setting [6]), the “hPPB (% free)” value is listed as 6.1 % free. Also, the IC50 in series [2] (setting [8]) is 32.4 nM. Besides, the values for the microsomal CLint at 1 μM in series [3] (37° C.) and in series [4] (37° C.) were 72.4 µL/min/mg and 13.6 µL/min/mg, respectively.
Regarding `Cc1cc(-c2c[nH]c(C3COc4ccc(Oc5ccnc6c5CCC(=O)N6)cc4C3)n2)n(CC(F)(F)F)n1` (stereo not shown) [Compound 126, 5-[3-[4-[5-methyl-2-(2,2,2-trifluoroethyl)pyrazol-3-yl]-1H-imidazol-2-yl]chroman-6-yl]oxy-3,4-dihydro-1H-1,8-naphthyridin-2-one], the “hPPB (% free)” value in series [1] (setting [6]) is listed as 1.0 % free. Moreover, in series [2] (setting [8]), the IC50 is 245 nM. Also, the intrinsic clearance (microsomal CLint) at 1 μM in series [3] (37° C.) was 55.7 µL/min/mg; in series [4] (37° C.), 121 µL/min/mg.
As to `Cc1c[nH]c(-c2cc(Oc3ccc4c(c3)CC(c3nc(-c5ccccc5)c[nH]3)CO4)ccn2)n1` (stereo not shown) [Compound 143, 2-(4-methyl-1H-imidazol-2-yl)-4-[3-(4-phenyl-1H-imidazol-2-yl)chroman-6-yl]oxy-pyridine], the “hPPB (% free)” value in series [1] (setting [6]) was less than 0.1 % free. Besides, the IC50 in series [2] (setting [8]) was 575 nM. In addition, the values for the microsomal CLint at 1 μM in series [3] (37° C.) and in series [4] (37° C.) were 86.1 µL/min/mg and 36.1 µL/min/mg, respectively.
